# Source: US7517517B2 (Janssen Pharmaceutica N.V., priority 2002, dated 2009)
# Molecular target: mGlu1 receptor (Rattus norvegicus, UniProt P23385)
# Test: [3H]Compound A binding and autoradiography on rat brain sections
# Protocol: Tissue preparation. Male Wistar rats (200 g) were sacrificed by decapitation. Brains were immediately removed from the skull and were rapidly frozen in dry-ice-cooled 2-methylbutane (−40° C.). Brains were then stored at −70° C. until sectioning. Twenty-micrometer-thick sagittal sections were cut using a Leica C3050 cryostat microtome (Leica Microsystems, Wetzlar, Germany) and thaw-mounted on SuperFrost Plus microscope slides (Menzle-glaser, Germany). The sections were then kept at −70° C. until use.
# Receptor autoradiography. Sections were thawed and dried under a stream of cold air, preincubated (3×5 min) in 50 mM Tris-HCl, 1.2 mM MgCl2, 2 mM CaCl2, 0.1% BSA pH 7.4 at room temperature. […] After the incubation, the excess of radioligand was washed off (3×5 min) in ice-cold buffer containing 50 mM Tris-HCl, 1.2 mM MgCl2 and 2 mM CaCl2, followed by a rapid dip in cold distilled water. The sections were dried under a stream of cold air and then exposed to [^3H]Hyperfilm (Amersham, UK) for 6 weeks at room temperature. The films were developed manually in Kodak D19 and fixed with Kodak Readymatic. Some sections were exposed to a Fuji Imaging Plate for 2 days at room temperature and scanned using a Fujix Bass 2000 phosphoimager.
structure (smiles),measurement,setting,value
[3H]c1ccc(CC(=O)c2ccc3nc4c(cc3c2)CCCO4)cc1 [[^3H]Compound A],specific binding in autoradiography,"CA3 field and dentate gyrus of hippocampal formation, thalamus, olfactory tubercle, amygdala, substantia nigra reticulata",moderate signal
same,specific binding in autoradiography,"cerebral cortex, caudate putamen, ventral pallidum, nucleus accumbens",lower labelling
same,specific binding in autoradiography,molecular layer of the cerebellum,Very high specific binding
